#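 1) Cells in 96-well plates. 2) Compound, 48 h, 5 concentrations. 3) Linear interpolation between surrounding doses. 4) Unreached endpoint = highest concentration. TGI: concentration producing complete growth inhibition.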 Where a SMILES comes first, the peptide text is derived from it. [ ]: non-standard residue; d: D form. The star is where a group is joined. X28 = COC1=CC(=O)N(C(=O)[C@@H](O*)C(C)C)[C@H]1Cc1ccccc1; NMeL = CN[C@@H](CC(C)C)C(=O)O; Hexanoyl = CCCCCC(=O)*
# Legend:
# Assay in all cases: NCI-60 cell line screen, 48 h
# CAKI-1 renal = test system: CAKI-1 renal
# SN12C renal = test system: SN12C renal
# A549 NSCLC = test system: A549 NSCLC
# M14 melanoma = test system: M14 melanoma
# SK-MEL-2 melanoma = test system: SK-MEL-2 melanoma
# OVCAR-4 ovarian = test system: OVCAR-4 ovarian
# OVCAR-8 ovarian = test system: OVCAR-8 ovarian
# HL-60(TB) leukemia = test system: HL-60(TB) leukemia
# SNB-19 CNS = test system: SNB-19 CNS
# SK-MEL-28 melanoma = test system: SK-MEL-28 melanoma
# OVCAR-3 ovarian = test system: OVCAR-3 ovarian
# OVCAR-5 ovarian = test system: OVCAR-5 ovarian
# CCRF-CEM leukemia = test system: CCRF-CEM leukemia
# HS 578T breast = test system: HS 578T breast
# RPMI-8226 leukemia = test system: RPMI-8226 leukemia
# MALME-3M melanoma = test system: MALME-3M melanoma
# HCT-116 colon = test system: HCT-116 colon
# IGROV1 ovarian = test system: IGROV1 ovarian
# U251 CNS = test system: U251 CNS
# NCI-H226 lung = test system: NCI-H226 lung
# COLO 205 colon = test system: COLO 205 colon
# MCF7 breast = test system: MCF7 breast
# SK-MEL-5 melanoma = test system: SK-MEL-5 melanoma
# UACC-62 melanoma = test system: UACC-62 melanoma
# MDA-MB-435 = test system: MDA-MB-435
# K-562 leukemia = test system: K-562 leukemia
# TK-10 renal = test system: TK-10 renal
# UACC-257 melanoma = test system: UACC-257 melanoma
# MDA-N = test system: MDA-N
# NCI-H23 lung = test system: NCI-H23 lung
# DU-145 prostate = test system: DU-145 prostate
# NCI-H460 lung = test system: NCI-H460 lung
# SW-620 colon = test system: SW-620 colon
# LOX IMVI melanoma = test system: LOX IMVI melanoma
# BT-549 breast = test system: BT-549 breast
# HOP-62 NSCLC = test system: HOP-62 NSCLC
# MOLT-4 leukemia = test system: MOLT-4 leukemia
# NCI-H522 lung = test system: NCI-H522 lung
# UO-31 renal = test system: UO-31 renal
# T-47D breast = test system: T-47D breast
# HT29 colon = test system: HT29 colon
# MDA-MB-231 breast = test system: MDA-MB-231 breast
# 786-0 renal = test system: 786-0 renal
# KM12 colon = test system: KM12 colon
# NCI/ADR-RES ovarian = test system: NCI/ADR-RES ovarian
# PC-3 prostate = test system: PC-3 prostate
# HOP-92 NSCLC = test system: HOP-92 NSCLC
# EKVX NSCLC = test system: EKVX NSCLC
# SF-295 CNS = test system: SF-295 CNS
# HCT-15 colon = test system: HCT-15 colon
# SF-268 CNS = test system: SF-268 CNS
# HCC-2998 colon = test system: HCC-2998 colon
# SK-OV-3 ovarian = test system: SK-OV-3 ovarian
# A498 renal = test system: A498 renal
# RXF 393 renal = test system: RXF 393 renal
# ACHN renal = test system: ACHN renal
# SF-539 CNS = test system: SF-539 CNS
# SNB-75 CNS = test system: SNB-75 CNS
compound,measurement,setting,value
CC(C)=NN/C(=N\S(=O)(=O)c1cc(Cl)c(Oc2ccc([N+](=O)[O-])cc2Cl)c(Cl)c1)Nc1ccc(Cl)cc1,TGI,CAKI-1 renal,> 100 µM
same,TGI,SN12C renal,> 100 µM
same,TGI,A549 NSCLC,> 100 µM
same,TGI,M14 melanoma,> 100 µM
same,TGI,SK-MEL-2 melanoma,> 100 µM
same,TGI,OVCAR-4 ovarian,> 100 µM
same,TGI,OVCAR-8 ovarian,> 100 µM
same,TGI,HL-60(TB) leukemia,> 100 µM
same,TGI,SNB-19 CNS,> 100 µM
same,TGI,SK-MEL-28 melanoma,> 100 µM
same,TGI,OVCAR-3 ovarian,> 100 µM
same,TGI,OVCAR-5 ovarian,> 100 µM
same,TGI,CCRF-CEM leukemia,> 100 µM
same,TGI,HS 578T breast,> 100 µM
same,TGI,RPMI-8226 leukemia,> 100 µM
same,TGI,MALME-3M melanoma,> 100 µM
same,TGI,HCT-116 colon,> 100 µM
same,TGI,IGROV1 ovarian,> 100 µM
same,TGI,U251 CNS,> 100 µM
same,TGI,NCI-H226 lung,> 100 µM
same,TGI,COLO 205 colon,> 100 µM
same,TGI,MCF7 breast,> 100 µM
same,TGI,SK-MEL-5 melanoma,> 100 µM
same,TGI,UACC-62 melanoma,> 100 µM
same,TGI,MDA-MB-435,> 100 µM
same,TGI,K-562 leukemia,> 100 µM
same,TGI,TK-10 renal,> 100 µM
same,TGI,UACC-257 melanoma,> 100 µM
same,TGI,MDA-N,> 100 µM
same,TGI,NCI-H23 lung,> 100 µM
same,TGI,DU-145 prostate,> 100 µM
same,TGI,NCI-H460 lung,> 100 µM
same,TGI,SW-620 colon,> 100 µM
same,TGI,LOX IMVI melanoma,> 100 µM
same,TGI,BT-549 breast,> 100 µM
same,TGI,HOP-62 NSCLC,> 100 µM
same,TGI,MOLT-4 leukemia,> 100 µM
same,TGI,NCI-H522 lung,> 100 µM
same,TGI,UO-31 renal,> 100 µM
same,TGI,T-47D breast,> 100 µM
same,TGI,HT29 colon,> 100 µM
same,TGI,MDA-MB-231 breast,> 100 µM
same,TGI,786-0 renal,> 100 µM
same,TGI,KM12 colon,> 100 µM
same,TGI,NCI/ADR-RES ovarian,> 100 µM
same,TGI,PC-3 prostate,> 100 µM
same,TGI,HOP-92 NSCLC,> 100 µM
same,TGI,EKVX NSCLC,> 100 µM
same,TGI,SF-295 CNS,> 100 µM
same,TGI,HCT-15 colon,> 100 µM
same,TGI,SF-268 CNS,> 100 µM
CCCCCC(=O)N[C@H](C(=O)N[C@H](C(=O)N(C)[C@@H](CC(C)C)C(=O)N1CCC[C@H]1C(=O)N1CCC[C@H]1C(=O)O[C@H](C(=O)N1C(=O)C=C(OC)[C@@H]1Cc1ccccc1)C(C)C)C(C)C)C(C)C (Hexanoyl-VV[NMeL]PP-X28),TGI,CAKI-1 renal,> 100 µM
same,TGI,SN12C renal,> 100 µM
same,TGI,A549 NSCLC,> 100 µM
same,TGI,M14 melanoma,> 48.1 µM
same,TGI,SK-MEL-2 melanoma,> 100 µM
same,TGI,HCC-2998 colon,> 100 µM
same,TGI,SK-OV-3 ovarian,> 100 µM
same,TGI,A498 renal,> 100 µM
same,TGI,OVCAR-4 ovarian,> 100 µM
same,TGI,OVCAR-8 ovarian,> 100 µM
same,TGI,HL-60(TB) leukemia,6.2 µM
same,TGI,SNB-19 CNS,> 42.1 µM
same,TGI,SK-MEL-28 melanoma,> 100 µM
same,TGI,OVCAR-3 ovarian,> 100 µM
same,TGI,OVCAR-5 ovarian,> 100 µM
same,TGI,CCRF-CEM leukemia,> 100 µM
same,TGI,HS 578T breast,> 100 µM
same,TGI,RPMI-8226 leukemia,> 100 µM
same,TGI,MALME-3M melanoma,> 100 µM
same,TGI,HCT-116 colon,> 100 µM
same,TGI,IGROV1 ovarian,> 100 µM
same,TGI,U251 CNS,> 100 µM
same,TGI,RXF 393 renal,90.3 µM
same,TGI,ACHN renal,> 100 µM
same,TGI,NCI-H226 lung,> 100 µM
same,TGI,COLO 205 colon,> 100 µM
same,TGI,MCF7 breast,> 100 µM
same,TGI,UACC-62 melanoma,> 100 µM
same,TGI,MDA-MB-435,> 100 µM
same,TGI,K-562 leukemia,> 100 µM
same,TGI,TK-10 renal,> 100 µM
same,TGI,SF-539 CNS,> 100 µM
same,TGI,UACC-257 melanoma,> 100 µM
same,TGI,MDA-N,> 100 µM
same,TGI,NCI-H23 lung,> 100 µM
same,TGI,DU-145 prostate,> 100 µM
same,TGI,NCI-H460 lung,> 100 µM
same,TGI,SW-620 colon,> 100 µM
same,TGI,LOX IMVI melanoma,> 100 µM
same,TGI,BT-549 breast,> 100 µM
same,TGI,HOP-62 NSCLC,> 100 µM
same,TGI,SNB-75 CNS,70.8 µM
same,TGI,MOLT-4 leukemia,> 100 µM
same,TGI,NCI-H522 lung,> 100 µM
same,TGI,T-47D breast,> 100 µM
same,TGI,HT29 colon,> 100 µM
same,TGI,MDA-MB-231 breast,> 100 µM
same,TGI,786-0 renal,> 100 µM
same,TGI,KM12 colon,> 100 µM
same,TGI,NCI/ADR-RES ovarian,> 100 µM
same,TGI,PC-3 prostate,> 80.5 µM
same,TGI,HOP-92 NSCLC,> 100 µM
same,TGI,EKVX NSCLC,> 100 µM
same,TGI,SF-295 CNS,> 100 µM
same,TGI,HCT-15 colon,> 100 µM
same,TGI,SF-268 CNS,> 100 µM

# — PubChem BioAssay (NCI)
